Reference: patent publication US20240390408A1, “METHOD OF TREATING HEPATITIS C VIRUS IN PATIENTS” (Altesa BioSciences, Inc., priority 2023, published 2024)
Where two headings read alike, the source gives them in different places.

Experiment: Tissue concentrations of Formula I and its metabolites in Göttingen pigs after a single oral or intravenous dose (LC-MS/MS)
Type: in vivo
Conditions: for concentration at 24 h / concentration at 12 h / concentration at 3 h / concentration at 2 h: both sexes, Göttingen, pig (minipig)
Protocol: Tissue samples were collected at 3, 12, and 24 hours post-dose (hpd) for the oral dose and 2 and 12 hpd for the intravenous dose, snap-frozen in liquid nitrogen, and stored at −60 to −90° C. until shipment on dry ice for analysis by LC-MS/MS.
Animals were weighed the day prior to dosing to determine the dosing volume.
The compound of Formula I was dissolved in a PEG 400/DI water (60%/40% v/v) vehicle for oral dosing. For IV dosing the compound of Formula I was dissolved in a PEG 400/Cremophor RH 40/Saline (40%/10%/50% v/v) vehicle and passed through a sterile filter. […] Animals were euthanized by euthanasia solution administration under sedation, if necessary (e.g., acepromazine and or/Telazol®), followed by a Testing Facility SOP approved method to ensure death (e.g., exsanguination). Tissues were collected from two animals per sex per timepoint. Tissue samples, including the brain, heart, kidney, liver, lung, spleen, pancreas, bone marrow, duodenum, jejunum, and colon, were collected in duplicate (approximately 50±20 mg each) and placed into two separate reinforced homogenization tubes per organ (one tissue sample per tube). The exact weight (in milligrams) of each sample was recorded. Tissues samples were flash frozen in liquid nitrogen and stored at −60 to −90° C. until shipment on dry ice for analysis by LC-MS/MS.
Mobile phase A consisted of 50 mM ammonium bicarbonate buffer in HPLC grade water pH 9.8 and mobile phase B consisted of pure acetonitrile. […] Mass spectrometry analysis was performed on a QTrap 7500 Mass Spectrometer (Sciex, Framingham, MA, USA) using negative mode electrospray ionization (ESI) in multiple reaction monitoring (MRM) mode. Data analysis was performed using SCIEX OS Software (Sciex, Framingham, MA, USA).
Tissue samples were collected at 3, 12, and 24 hours post-dose for the oral dose and 2 and 12 hour post-dose for the intravenous dose.

[1] = kidney, single oral dose of Formula I 125 mg/kg, 3 hpd, read-out: Tissue concentration, kidney
[2] = liver, single intravenous bolus of Formula I 25 mg/kg, 2 hpd, read-out: Tissue concentration, liver
[3] = liver, single intravenous bolus of Formula I 25 mg/kg, 12 hpd, read-out: Tissue concentration, liver
[4] = liver, single oral dose of Formula I 125 mg/kg, 12 hpd, read-out: Tissue concentration in Göttingen pig liver (Table 7)
[5] = liver, single oral dose of Formula I 125 mg/kg, 12 hpd, read-out: Tissue concentration, liver
[6] = lung, single intravenous bolus of Formula I 25 mg/kg, 2 hpd, read-out: Tissue concentration, lung
[7] = lung, single intravenous bolus of Formula I 25 mg/kg, 12 hpd, read-out: Tissue concentration, lung
[8] = lung, single oral dose of Formula I 125 mg/kg, 3 hpd, read-out: Tissue concentration, lung
[9] = spleen, single intravenous bolus of Formula I 25 mg/kg, 2 hpd, read-out: Tissue concentration, spleen
[10] = spleen, single intravenous bolus of Formula I 25 mg/kg, 12 hpd, read-out: Tissue concentration, spleen
[11] = single intravenous bolus of Formula I 25 mg/kg, 2 hpd
[12] = single intravenous bolus of Formula I 25 mg/kg, 12 hpd
[13] = single oral dose of Formula I 125 mg/kg, 3 hpd
[14] = single oral dose of Formula I 125 mg/kg, 12 hpd
[15] = single oral dose of Formula I 125 mg/kg, 24 hpd
[16] = kidney, single intravenous bolus of Formula I 25 mg/kg, 2 hpd
[17] = kidney, single oral dose of Formula I 125 mg/kg, 3 hpd
[18] = kidney, single oral dose of Formula I 125 mg/kg, 24 hpd
[19] = liver, single intravenous bolus of Formula I 25 mg/kg, 2 hpd
[20] = liver, single oral dose of Formula I 125 mg/kg, 3 hpd
[21] = liver, single oral dose of Formula I 125 mg/kg, 24 hpd
[22] = lung, single intravenous bolus of Formula I 25 mg/kg, 12 hpd
[23] = lung, single oral dose of Formula I 125 mg/kg, 24 hpd
[24] = spleen, single intravenous bolus of Formula I 25 mg/kg, 12 hpd
[25] = spleen, single oral dose of Formula I 125 mg/kg, 3 hpd
[26] = spleen, single oral dose of Formula I 125 mg/kg, 12 hpd
[27] = spleen, single oral dose of Formula I 125 mg/kg, 24 hpd

## CC1(O)[C@@H](O)[C@@H](COP(=O)(O)O)O[C@H]1n1ccc(=O)[nH]c1=S (stereo partly shown) [Formula III]
After PO dosing with Formula I
  Exposure in the lung and spleen, fold lower than liver and kidneys: about 10 fold
125 mg/kg, liver and kidney, 24 hpd after oral dosing with Formula I, read-out: Concentration measurable in the liver and kidney
  concentration at 24 h: ~500 nM
kidney, single intravenous bolus of Formula I 25 mg/kg, 12 hpd, read-out: Tissue concentration, kidney
  concentration at 12 h: 276 ± 78.1 ng/g
[1]
  concentration at 3 h: 14100 ± 5050 ng/g
kidney, single oral dose of Formula I 125 mg/kg, 12 hpd, read-out: Tissue concentration, kidney
  concentration at 12 h: 824 ± 432 ng/g
kidney, single oral dose of Formula I 125 mg/kg, 24 hpd, read-out: Tissue concentration, kidney
  concentration at 24 h: 85.5 ± 18.1 ng/g
[2]
  concentration at 2 h: 13100 ± 3070 ng/g
[3]
  concentration at 12 h: 62.7 ± 77.7 ng/g
[4]
  concentration at 12 h: 1640 ± 924 nM
[5]
  concentration at 12 h: 582 ± 328 ng/g
liver, single oral dose of Formula I 125 mg/kg, 24 hpd, read-out: Tissue concentration in Göttingen pig liver (Table 7)
  concentration at 24 h: 537 ± 229 nM
liver, single oral dose of Formula I 125 mg/kg, 24 hpd, read-out: Tissue concentration, liver
  concentration at 24 h: 190 ± 81 ng/g
[6]
  concentration at 2 h: 2040 ± 883 ng/g
[7]
  concentration at 12 h: 357 ± 207 ng/g
[8]
  concentration at 3 h: 303 ± 94.4 ng/g
lung, single oral dose of Formula I 125 mg/kg, 12 hpd, read-out: Tissue concentration, lung
  concentration at 12 h: 55.2 ± 64.6 ng/g
[9]
  concentration at 2 h: 240 ± 28.3 ng/g
[10]
  concentration at 12 h: 58.9 ± 14.7 ng/g
spleen, single oral dose of Formula I 125 mg/kg, 3 hpd, read-out: Tissue concentration, spleen
  concentration at 3 h: 118 ± 10.8 ng/g
[11]
  Tissue concentration, brain: BQL
  Tissue concentration, heart: 89.9 ± 65.5 ng/g
[12]
  Tissue concentration, brain: BQL
  Tissue concentration, heart: BQL
[13]
  Tissue concentration, brain: BQL
  Tissue concentration, heart: 34.0 ± 39.9 ng/g
[14]
  Tissue concentration, brain: BQL
  Tissue concentration, heart: BQL
[15]
  Tissue concentration, brain: BQL
  Tissue concentration, heart: BQL
[16]
  Tissue concentration, kidney: above the limit of quantitation and AQL
[17]
  Tissue concentration, kidney: 14100 ± 5050^ ng/g
[18]
  Tissue concentration, kidney: 85.5 ± 18.1 ng/g
[19]
  Tissue concentration, liver: 13100 ± 3070 ng/g
[20]
  Tissue concentration in Göttingen pig liver (Table 7): AQL
  Tissue concentration, liver: above the limit of quantitation and AQL
[21]
  Tissue concentration, liver: 190 ± 81.0 ng/g
[22]
  Tissue concentration, lung: 357 ± 207 ng/g
[23]
  Tissue concentration, lung: BQL
[24]
  Tissue concentration, spleen: 58.9 ± 14.7 ng/g
[25]
  Tissue concentration, spleen: 118 ± 10.8 ng/g
[26]
  Tissue concentration, spleen: BQL
[27]
  Tissue concentration, spleen: BQL

## CC1(O)[C@@H](O)[C@@H](COP(=O)(O)OP(=O)(O)OP(=O)(O)O)O[C@H]1n1ccc(=O)[nH]c1=S (stereo partly shown) [Formula V]
125 mg/kg, liver, 12 hpd after oral dosing with Formula I, assumed tissue density of 1 g/mL, read-out: Concentration present in the liver
  concentration at 12 h: ~1000 nM
lung, 25 mg/kg, lungs, 12 hrs post-dose after IV dosing with Formula I, read-out: Concentration maintained in lungs
  concentration at 12 h: ~1000 nM
kidney, single intravenous bolus of Formula I 25 mg/kg, 2 hpd, read-out: Tissue concentration, kidney
  concentration at 2 h: 4410 ± 2040 ng/g
[1]
  concentration at 3 h: 613 ± 280 ng/g
[2]
  concentration at 2 h: 2610 ± 892 ng/g
[3]
  concentration at 12 h: 62.8 ± 126 ng/g
liver, single oral dose of Formula I 125 mg/kg, 3 hpd, read-out: Tissue concentration in Göttingen pig liver (Table 7)
  concentration at 3 h: 12900 ± 12300 nM
liver, single oral dose of Formula I 125 mg/kg, 3 hpd, read-out: Tissue concentration, liver
  concentration at 3 h: 6670 ± 6310 ng/g
[4]
  concentration at 12 h: 880 ± 1050 nM
[5]
  concentration at 12 h: 452 ± 541 ng/g
[6]
  concentration at 2 h: 3620 ± 2770 ng/g
[7]
  concentration at 12 h: 455 ± 263 ng/g
[8]
  concentration at 3 h: 170 ± 29.5 ng/g
[9]
  concentration at 2 h: 318 ± 181 ng/g
[10]
  concentration at 12 h: 47.5 ± 95 ng/g
[11]
  Tissue concentration, brain: BQL
  Tissue concentration, heart: 405 ± 149 ng/g
[12]
  Tissue concentration, brain: BQL
  Tissue concentration, heart: 140 ± 32.0 ng/g
[13]
  Tissue concentration, brain: not detected and BQL
  Tissue concentration, heart: 64.3 ± 75.4 ng/g
[14]
  Tissue concentration, brain: BQL
  Tissue concentration, heart: BQL
[15]
  Tissue concentration, brain: BQL
  Tissue concentration, heart: BQL
[16]
  Tissue concentration, kidney: 4410 ± 2040 ng/g
kidney, single intravenous bolus of Formula I 25 mg/kg, 12 hpd
  Tissue concentration, kidney: not detectable and BQL
[17]
  Tissue concentration, kidney: 613 ± 280 ng/g
kidney, single oral dose of Formula I 125 mg/kg, 12 hpd
  Tissue concentration, kidney: BQL
[18]
  Tissue concentration, kidney: BQL
[19]
  Tissue concentration, liver: 2610 ± 892 ng/g
liver, single intravenous bolus of Formula I 25 mg/kg, 12 hpd
  Tissue concentration, liver: 62.8 ± 126 ng/g
[20]
  Tissue concentration, liver: 6670 ± 6310 ng/g
liver, single oral dose of Formula I 125 mg/kg, 12 hpd
  Tissue concentration, liver: 452 ± 541 ng/g
[21]
  Tissue concentration in Göttingen pig liver (Table 7): BQL
  Tissue concentration, liver: BQL
lung, single intravenous bolus of Formula I 25 mg/kg, 2 hpd
  Tissue concentration, lung: 3620 ± 2770 ng/g
[22]
  Tissue concentration, lung: 455 ± 263 ng/g
lung, single oral dose of Formula I 125 mg/kg, 3 hpd
  Tissue concentration, lung: 170 ± 29.5 ng/g
lung, single oral dose of Formula I 125 mg/kg, 12 hpd
  Tissue concentration, lung: BQL
[23]
  Tissue concentration, lung: BQL
spleen, single intravenous bolus of Formula I 25 mg/kg, 2 hpd
  Tissue concentration, spleen: 318 ± 181 ng/g
[24]
  Tissue concentration, spleen: 47.5 ± 95.0 ng/g
[25]
  Tissue concentration, spleen: not detected and BQL
[26]
  Tissue concentration, spleen: BQL
[27]
  Tissue concentration, spleen: BQL
